# Columns and labels:
# [1] = tested on: cell surface PD-L1 expression; details: kinase inhibitor library screening, melanoma; cited from earlier work
# PD-L1 expression [2] = assay: PD-L1 promoter-luciferase reporter assay in A549 pGL4.14-PD-L1 cell line; type: cell-based; details: Homo sapiens, IFNγ (50 ng/ml) inducer, luminometer, read-out: PD-L1 expression inhibition rate in A549 (%)
# Protocol: The PD-L1 promoter gene region was inserted into the pGL4.14-[luc2/Hygro] vector (promega, Madison, WI) in the following way to prepare a promoter-reporter construct for measuring gene transcription activity.
# After preparing primer including KpnI and Xhol restriction enzyme sites in PD-L1, PCR (polymerase chain reaction) was performed, and promoter region DNA was separated by performing electrophoresis on an agarose gel. The pGL4.14-[1uc2/Hygro] vector containing firefly luciferase as a reporter gene was treated with the same restriction enzyme, and separated by agarose gel electrophoresis and gel extraction. The pure isolated PD-L1 promoter gene region and the pGL4.14-[luc2/Hygro] vector were reacted at 50° C. for 1 hour using in-fusion DNA ligase (Takara), followed by E. coli transformation to prepare a promoter-reporter construct into which the […] promoter was inserted, which was named pGL4.14-PD-L1.
# To measure the transcriptional activity of the PD-L1 gene promoter, A549 cells were transiently transfected with the PD-L1 promoter-reporter construct as follows, and then the luciferase activity of the cell extract was measured.
# The DNA-lipofectamine complex was prepared according to the manufacturer's protocol using 0.1 μtg of promoter-reporter construct plasmid and Lipofectamine 2000 reagent (Invitrogen). Opti-MEM medium (Invitrogen) was used in the process of forming a complex between DNA and Lipofectamine 2000. A549 cells were prepared at 2.5×10^5 cells per well (1 ml) in a 12-well plate by checking the number of cells immediately before adding the DNA. The DNA-lipofectamine complex was carefully mixed with A549 cells and reacted in an incubator at 37° C. for 6 hours. Thereafter, the medium was changed to search for transfected cells, and PD-L1-transfected A549 cells were found through a luciferase test. This was named A549 pGL4.14-PD-L1 cell line and the experiment was conducted. IFNγ (50 ng/ml) was used as a PD-L1 inducer.
# The A549 pGL4.14-PD-L1 cell line was treated with the pyrimido pyrimidinone derivatives of Example at concentrations of 0.1 μM and 1.0 μM, respectively, and PD-L1 expression inhibition was evaluated using a luminometer. For comparison, the same experiment was performed for GS9973 (Entospletinib) known to have PD-L1 expression inhibitory activity.
# The inhibition rate of PD-L1 expression was calculated by Equation 1 below. PD-L1 expression inhibition rate (%)=100−[(A/B)×100] [Equation 1]
# wherein, A is a value when treated with a drug, and B is a value when not treated with a drug.
# PD-L1 = assay: Western-blot analysis of PD-L1 in tumors excised from B16F10 mice; parameters: species or system mouse; details: tumors extracted from mice after the in vivo test of Experimental Example 2; FIG. 3
# Excerpt: After the in vivo tumor inhibition test using compound 1-8 of Experimental Example 2, the PD-L1 expression inhibition effect in tumor cells extracted from mice was confirmed through Western-blot analysis. For comparison, the efficacy of inhibiting PD-L1 expression in tumor cells extracted from the control mice was also confirmed through Western-blot analysis.
# Proteins were identified with the ChemiDoc™ imaging system (Bio-rad) using a chemiluminescence (ECL) kit (elpis biotec, EBP-1073).
# melanoma cell = details: melanoma model; cited from earlier work
# PD-L1 expression [3] = details: melanoma model; cited from earlier work
SMILES,inhibition at 0.1 µM (PD-L1 expression [2]) [%],inhibition at 1 µM (PD-L1 expression [2]) [%],also measured
CNC(=O)c1cc(Oc2ccc(NC(=O)Nc3ccc(Cl)c(C(F)(F)F)c3)c(F)c2)ccn1 [regorafenib],,,reduction of cell surface PD-L1 expression level [1]: more than 50%
"CN1C(=O)N(c2cc(NC(=O)c3cccc(C(F)(F)F)c3)cnc2Cl)Cc2cnc(Nc3ccccc3)nc21 [Compound I-8, N-(6-chloro-5-(1-methyl-2-oxo-7-(phenylamino)-1,2-dihydropyrimido[4,5-d]pyrimidin-3(4H)-yl)pyridin-3-yl)-3-(trifluoromethyl)benzamide]",60.4,97.5,expression of PD-L1 in tumor compared to the control group (Western blot) (PD-L1): reduced
"CN1C(=O)N(c2cc(NC(=O)c3cccc(C(F)(F)F)c3)cnc2Cl)Cc2cnc(Nc3ccc(O)cc3)nc21 [Compound I-11, N-(6-chloro-5-(7-((4-hydroxyphenyl)amino)-1-methyl-2-oxo-1,2-dihydropyrimido[4,5-d]pyrimidin-3(4H)-yl)pyridin-3-yl)-3-(trifluoromethyl)benzamide]",65,98,
"Cc1ncc(NC(=O)c2cccc(C(C)(C)C)c2)cc1N1Cc2cnc(Nc3ccccc3)nc2N(C)C1=O [Compound I-2, 3-(t-butyl)-N-(6-methyl-5-(1-methyl-2-oxo-7-(phenylamino)-1,2-dihydropyrimido[4,5-d]pyrimidin-3(4H)-yl)pyridin-3-yl)benzamide]",32.6,72.5,
"COc1ncc(NC(=O)c2cccc(C(F)(F)F)c2)cc1N1Cc2cnc(Nc3ccccc3)nc2N(C)C1=O [Compound I-3, N-(6-methoxy-5-(1-methyl-2-oxo-7-(phenylamino)-1,2-dihydropyrimido[4,5-d]pyrimidin-3(4H)-yl)pyridin-3-yl)-3-(trifluoromethyl)benzamide]",29.3,92.5,
"CN1C(=O)N(c2cc(NC(=O)c3csc(C(C)(C)C)n3)cnc2Cl)Cc2cnc(Nc3ccccc3)nc21 [Compound I-10, 2-(t-butyl)-N-(6-chloro-5-(1-methyl-2-oxo-7-(phenylamino)-1,2-dihydropyrimido[4,5-d]pyrimidin-3(4H)-yl)pyridin-3-yl)thiazole-4-carboxamide]",67,98,
"Cc1ncc(NC(=O)c2cccc(C3=NC(C)(C)CO3)c2)cc1N1Cc2cnc(Nc3ccccc3)nc2N(C)C1=O [Compound I-5, 3-(4,4-dimethyl-4,5-dihydrooxazol-2-yl)-N-(6-methyl-5-(1-methyl-2-oxo-7-(phenylamino)-1,2-dihydropyrimido[4,5-d]pyrimidin-3(4H)-yl)pyridin-3-yl)benzamide]",19.4,81.9,
"COc1ncc(NC(=O)c2cccc(C3=NC(C)(C)CO3)c2)cc1N1Cc2cnc(Nc3ccccc3)nc2N(C)C1=O [Compound I-7, 3-(4,4-dimethyl-4,5-dihydrooxazol-2-yl)-N-(6-methoxy-5-(1-methyl-2-oxo-7-(phenylamino)-1,2-dihydropyrimido[4,5-d]pyrimidin-3(4H)-yl)pyridin-3-yl)benzamide]",13.1,85.3,
"Cc1ncc(NC(=O)c2ccc(C3=NC(C)(C)CO3)cc2)cc1N1Cc2cnc(Nc3ccccc3)nc2N(C)C1=O [Compound I-4, 4-(4,4-dimethyl-4,5-dihydrooxazol-2-yl)-N-(6-methyl-5-(1-methyl-2-oxo-7-(phenylamino)-1,2-dihydropyrimido[4,5-d]pyrimidin-3(4H)-yl)pyridin-3-yl)benzamide]",20.1,82.5,
O=c1cc(-c2ccc(O)cc2)oc2cc(O)cc(O)c12 [apigenin],,,melanoma cell growth inhibitory effects (melanoma cell): melanoma cell growth inhibitory effects; suppression of PD-L1 expression induced by IFN-γ (PD-L1 expression [3]): significantly suppress
"CN1C(=O)N(c2cc(NC(=O)c3cccc(C(C)(C)C)c3)cnc2Cl)Cc2cnc(Nc3ccccc3)nc21 [Compound I-9, 3-(t-butyl)-N-(6-chloro-5-(1-methyl-2-oxo-7-(phenylamino)-1,2-dihydropyrimido[4,5-d]pyrimidin-3(4H)-yl)pyridin-3-yl)benzamide]",48.8,97.2,
"c1cn2cc(-c3ccc4cn[nH]c4c3)nc(Nc3ccc(N4CCOCC4)cc3)c2n1 [GS9973(Entospletinib), Entospletinib, reference compound]",10.3,47.1,
"Cc1ncc(NC(=O)c2cccc(C(F)(F)F)c2)cc1N1Cc2cnc(Nc3ccccc3)nc2N(C)C1=O [Compound I-1, N-(6-methyl-5-(1-methyl-2-oxo-7-(phenylamino)-1,2-dihydropyrimido[4,5-d]pyrimidin-3(4H)-yl)pyridin-3-yl)-3-(trifluoromethyl)benzamide]",12.8,87.1,
"COc1ncc(NC(=O)c2cccc(C(C)(C)C)c2)cc1N1Cc2cnc(Nc3ccccc3)nc2N(C)C1=O [Compound I-6, 3-(t-butyl)-N-(6-methoxy-5-(1-methyl-2-oxo-7-(phenylamino)-1,2-dihydropyrimido[4,5-d]pyrimidin-3(4H)-yl)pyridin-3-yl)benzamide]",13.9,94.1,
COc1cc(/C=C/C(=O)CC(=O)/C=C/c2ccc(O)c(OC)c2)ccc1O [curcumin],,,melanoma cell growth inhibitory effects (melanoma cell): melanoma cell growth inhibitory effects
